According to the NIST ThermoML archive (doi:10.1016/j.jct.2012.03.022):
Numbers after ± are expanded uncertainties.

Conditions: Liquid, Closed cell (Static) method

**Q.** Which “vapor or sublimation pressure” value (258.15 K) does the source give for `CC(F)F` [1,1-difluoroethane] here?
**A.** 148.6 ± 1 kPa

**Q.** And the “vapor or sublimation pressure” value (268.15 K)?
**A.** 219.4 ± 1.1 kPa

**Q.** And the “vapor or sublimation pressure” value (278.15 K)?
**A.** 314.1 ± 1.1 kPa

**Q.** And the “vapor or sublimation pressure” value (288.15 K)?
**A.** 437.8 ± 1.2 kPa
